Assay results published in publication PMC11267536, “Gonococcal Mimitope Vaccine Candidate Forms a Beta-Hairpin Turn and Binds Hydrophobically to a Therapeutic Monoclonal Antibody” (JACS Au, 2024).
“And” between values parts separate entries of the source, which are not always exact repeats. Equal entries are not always repeated. Bridges are numbered along the chain shown (N, C = ends).

Experiments:
mAb 2C7 [1] = assay: STD NMR titration of CP2 into mAb 2C7; assay type: binding, Human-mouse chimeric; settings: STD-AF of methyl signals, one-site Langmuir model, saturation time 2 s, CP2 0.17-1.70 mM, 50 mM phosphate pH 7.4, H2O:D2O 90:10, 288 and 298 K, read-out: apparent equilibrium dissociation constant (KD)
Experimental: Chimeric mAb 2C7 and the sequence for the VH and VL regions of murine mAb 2C7 have been described previously.[18] Human-mouse chimeric mAb 2C7 was expressed in ExpiCHO cells and purified by affinity chromatography of tissue culture supernatants using Protein A/G agarose. Chimeric Fab 2C7 was expressed in CHO cells and purified by affinity chromatography with an anti-CH1 antibody (LakePharma).
(§1) NMR spectra were recorded on a Bruker AVANCE NEO 600-MHz equipped with a cryo probe, and data acquisition and processing were performed with TOPSPIN 4.1.1 software. Samples were prepared in H2O:D2O (90:10) buffered with 50 mM phosphate at pH 7.4, using 3 mm NMR tubes. NMR spectra were acquired using antibody concentrations of 10–20 μM, a peptide concentration of 1 mM, and an antibody:peptide ratio from 1:18 to 1:50, depending on the NMR experiments, and temperatures of 288 and 298 K; 0.05 mM amount of deuterated trimethylsilylpropanoic acid (TSP) was used as an internal standard.
STD NMR experiments were acquired with 32,000 data points and zero-filled up to 64,000 data points prior to processing. The protein resonances were selectively irradiated using 40 Gauss pulses with a length of 50 ms, setting the off-resonance pulse frequency at 40 ppm and the on-resonance pulse at 5.5 ppm. An excitation sculpting with gradient pulses (esgp) was applied for the suppression of water signals. […]

mAb 2C7 [2] = assay: Isothermal titration calorimetry (ITC); assay type: binding, Human-mouse chimeric; settings: 20 °C
Experimental: Isothermal titration calorimetry (ITC) experiments were carried out at 20 °C by using a MicroCal PEAQ-ITC instrument. mAb and peptide CP2 were both dialyzed against PBS pH 7.4 to avoid buffer mismatch between solutions. A solution of mAb with a concentration of 30 μM was loaded into the cell, and for each measurement, CP2 was added to the antibody solution through a microsyringe under a stirrer speed of 750 rpm. The titration was performed by adding 2 μL from a 1.67 mM CP2 solution for 19 injections using a time duration of 150 s. The data were analyzed and fitted by using the one-binding site model. The standard thermodynamic parameters of equilibrium were calculated by the following equation[45]: [drawing 2] 2 where ΔG is the Gibb’s free energy, Ka is the equilibrium constant, R is the gas constant, T is the temperature in kelvin, ΔH is the enthalpy change, and ΔS is the entropy change.

gonococcal colonization = settings: cited from earlier work
From the text: The spread of multidrug-resistant strains of Neisseria gonorrhoeae, the etiologic agent of gonorrhea, represents a global health emergency. Therefore, the development of a safe and effective vaccine against gonorrhea is urgently needed. […] Furthermore, we identified a peptide, cyclic peptide 2 (CP2) that mimicked the 2C7 LOS epitope, elic ... || Neisseria gonorrhoeae is a leading cause of sexually transmitted infections, which include urethritis, cervicitis, pharyngitis, locally invasive (epididymitis and salpingo-oophritis) and disseminated infections, and in rare cases, meningitis and endocarditis.[1] Infections in women are frequently asymptomatic, which augments the spread of bacteria among populations. Further, strains have emerged that are resistant to multiple antibiotics, which have the potential to lead to untreatable infections. Thus, the development of vaccines and novel therapeutics, including nonantibiotic approaches, is ... || Gonococcal lipooligosaccharide (LOS) is the most abundant component of the outer membrane. Antibodies against LOS can elicit complement-dependent bacterial killing, and therefore, LOS has been pursued as a vaccine candidate (reviewed in ref ([12])). A murine anti-LOS monoclonal antibody (mAb) 2C7 was isolated almost four decades ago.[13],[14] […]

gonococci = settings: ref previous studies, cited from earlier work
From the text: The spread of multidrug-resistant strains of Neisseria gonorrhoeae, the etiologic agent of gonorrhea, represents a global health emergency. Therefore, the development of a safe and effective vaccine against gonorrhea is urgently needed. […] Furthermore, we identified a peptide, cyclic peptide 2 (CP2) that mimicked the 2C7 LOS epitope, elic ... || Neisseria gonorrhoeae is a leading cause of sexually transmitted infections, which include urethritis, cervicitis, pharyngitis, locally invasive (epididymitis and salpingo-oophritis) and disseminated infections, and in rare cases, meningitis and endocarditis.[1] Infections in women are frequently asymptomatic, which augments the spread of bacteria among populations. Further, strains have emerged that are resistant to multiple antibiotics, which have the potential to lead to untreatable infections. […] Therefore, a random peptide display library was used to identify a peptide, designated as PEP1, which bound mAb 2C7. […] Subsequently, PEP1 was covalently cyclized to yield CP2 and configured as a tetramer (designated tetra-MAP CP2 or TMCP2). TMCP2 adjuvanted wit ...

mAb 2C7 [3] = assay: WaterLOGSY, CPMG and 1D NH chemical shift perturbation NMR; assay type: binding, Human-mouse chimeric
Experimental: as §1
The waterLOGSY experiments were performed on CP2 in the absence and presence of the mAb, using a conventional 1D NOE-ePHOGSY pulse sequence[36] provided in the Bruker library (ephogsygpno.2). The bulk water was selectively irradiated by 1D NOESY, and the solvent suppression was modified into a double pulsed-field gradient (DPFG) perfect-echo.[37] A mixing time of 2s was used in order to compare the WaterLOGSY experiment with the STD NMR experiment.
A mixture of 20 μM mAb2C7 and 1 mM CP2 peptide was prepared in deuterated phosphate saline buffer pH 7.4. Pseudo 2D experiments (cpmg_esgp2d) were used for detecting T2 spin–spin relaxation measurements. Data were analyzed by fitting the equation f(t) = Io × exp (−t/T) using Dynamics Center 2.7.1.

[4] = target: human-mouse chimeric mAb 2C7 (mouse | human | mouse VL, human constant region); assay: ITC; 20 °C, PBS pH 7.4; 30 uM mAb in the cell, 1.67 mM CP2 in the syringe, 19 injections of 2 uL; one-site model
[5] = target: human-mouse chimeric mAb 2C7 (mouse | human | mouse VL, human constant region); assay: NMR titration; STD NMR; CP2 (0.17 to 1.70 mM) titrated into a solution of mAb; 50 mM phosphate pH 7.4, H2O:D2O 90:10; saturation time 2 s; one-site Langmuir isotherm; apparent
gonococcal strains = settings: cited from earlier work
From the text: Gonococcal lipooligosaccharide (LOS) is the most abundant component of the outer membrane. Antibodies against LOS can elicit complement-dependent bacterial killing, and therefore, LOS has been pursued as a vaccine candidate (reviewed in ref ([12])). A murine anti-LOS monoclonal antibody (mAb) 2C7 was isolated almost four decades ago.[13],[14] 2C7 recognizes an LOS epitope that comprises lactose from heptose (Hep) II; lactose from HepI or GlcNAc may also contribute to the 2C7 epitope (see Supporting Information, Scheme S1). This mAb reacted with 94% of 68 gonococcal strains examined in the cerv ...

## Br-Ac-Gly-Pro-Ile-Pro-Val-Leu-Asp-Glu-Asn-Gly-Leu-Phe-Ala-Pro-Gly-Pro-Cys-Lys-OH (sidechain bridge or staple) [CP2]
mAb 2C7 [1]
  Kd: 61 µM
mAb 2C7 [2]; PBS pH 7.4
  ΔG: -6.24 kcal/mol
  ΔG (exothermic process): < 0
  ΔH: -1.71 ± 0.0707 kcal/mol and -1.71 kcal/mol
  −TΔS: -4.52 kcal/mol
mAb 2C7 [2]; one-site binding model, PBS pH 7.4
  binding stoichiometry N (sites): 1.89 ±4.4e-2 and 1.89
mAb 2C7 [2]; one-site binding model, PBS pH 7.4, mAb 30 μM, 1.67 mM CP2, 19 injections of 2 μL
  Kd: 23 µM
Gonococcal colonization; mouse vaginal colonization model, ref previous studies
  active protection: actively protected in a mouse vaginal colonization model
gonococci; mice
  bactericidal antibodies: elicited bactericidal antibodies in mice
mAb 2C7 [3]; 20 μM mAb 2C7, 1 mM CP2, deuterated phosphate saline buffer pH 7.4
  transverse relaxation time T2 (CPMG): indicative of complex formation
mAb 2C7 [3]; change in peak phase from free to bound state, mixing time 2 s
  WaterLOGSY binding: the change in the peak phase passing from the free to the bound state is indicative of binding
mAb 2C7 [3]; mixture of mAb 2C7 with CP2
  1D NH chemical shift perturbation: a few chemical shift perturbations

## GPIPVLDENGLFAPGPCK-OH (bridge N-17; not fully specified (N-terminus, bridges)) [cyclic peptide 2 (CP2)]
[4]
  Kd: 23 µM
  dH: -1.71 kcal/mol
  stoichiometry N: 1.89 CP2 per mAb
[5]
  Kd: 61 µM

B1: Murine mAb 2C7: murine anti-LOS monoclonal antibody 2C7 (antibody, V domains shown)
VH: EVQLQQSGPELVKPGSSVKISCKGSGYTFTDYNMEWVKQSHGKSLEWIGVINPNNRFTSYNQNFRGKATLTVDKSSSTAYMDLRSLTSEDSAVYFCAGSRWYQYDYWGQGTTLTVSS
VL: QVVVTQESALTTSPGETVTLTCRSSTGAVTTSNYANWVQEKPDHLFTGLIGGINNRAPGVPARFSGSLIADKAALTITGAQTEDEAIYFCALWYSNHWVFGGGTKLTVL
Gonococcal strains; 68 gonococcal strains examined in the cervical secretions of women
  gonococcal strains recognized: 94%
Gonococcal strains; 75 minimally passaged clinical isolates, Nanjing, China
  clinical isolates recognized: 100%
Gonococcal colonization; mouse vaginal model
  duration and burden of gonococcal colonization: decreased the duration and burden of gonococcal colonization
gonococci; against gonococci
  complement-dependent bactericidal activity: elicits complement-dependent bactericidal activity against gonococci
